For series [1], the system named is MDCKII-LE cell monolayers. Description: Apparent permeability. Conditions: donor pH 7.4, receiver pH 7.4; 2 μM PFAS; 90 min; 0.4% BSA in receiver.
Series [2] deals with T1, human OAT3 (Homo sapiens, UniProt Q8TCC7).
T1 sequence (Q8TCC7 1-542): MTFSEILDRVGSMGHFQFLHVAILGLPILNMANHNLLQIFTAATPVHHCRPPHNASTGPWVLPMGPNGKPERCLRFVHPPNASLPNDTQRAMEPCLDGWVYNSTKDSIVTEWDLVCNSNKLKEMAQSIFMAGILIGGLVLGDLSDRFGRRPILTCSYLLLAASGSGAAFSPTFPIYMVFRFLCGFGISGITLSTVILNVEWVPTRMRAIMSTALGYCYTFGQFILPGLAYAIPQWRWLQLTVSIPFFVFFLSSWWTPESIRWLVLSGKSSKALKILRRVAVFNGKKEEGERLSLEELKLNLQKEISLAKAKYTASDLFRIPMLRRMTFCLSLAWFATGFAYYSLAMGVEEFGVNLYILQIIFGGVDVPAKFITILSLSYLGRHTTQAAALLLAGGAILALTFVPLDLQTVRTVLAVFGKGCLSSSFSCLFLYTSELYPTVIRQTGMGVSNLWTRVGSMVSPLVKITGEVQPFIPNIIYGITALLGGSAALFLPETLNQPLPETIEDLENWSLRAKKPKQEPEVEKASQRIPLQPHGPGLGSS
As to the kind of experiment: OAT3 inhibition assay.

The target in series [3] is T2, human OAT1 (Homo sapiens, UniProt Q4U2R8).
T2 sequence (Q4U2R8 1-563): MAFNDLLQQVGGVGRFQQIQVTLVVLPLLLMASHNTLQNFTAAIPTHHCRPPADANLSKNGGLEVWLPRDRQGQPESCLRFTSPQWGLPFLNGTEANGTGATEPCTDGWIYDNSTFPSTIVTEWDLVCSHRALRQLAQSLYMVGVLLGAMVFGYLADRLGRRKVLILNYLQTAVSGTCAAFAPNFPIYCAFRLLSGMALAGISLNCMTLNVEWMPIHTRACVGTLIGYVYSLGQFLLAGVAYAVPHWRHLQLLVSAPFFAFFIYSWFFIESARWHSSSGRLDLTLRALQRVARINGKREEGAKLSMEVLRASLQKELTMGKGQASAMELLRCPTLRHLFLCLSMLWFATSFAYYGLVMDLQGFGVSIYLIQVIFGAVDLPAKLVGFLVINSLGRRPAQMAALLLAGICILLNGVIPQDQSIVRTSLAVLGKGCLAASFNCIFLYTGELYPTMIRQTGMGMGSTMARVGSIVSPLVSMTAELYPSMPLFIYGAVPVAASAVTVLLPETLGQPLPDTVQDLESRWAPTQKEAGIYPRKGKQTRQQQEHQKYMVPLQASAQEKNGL
As to the kind of experiment: hOAT1 substrate. The conditions noted are these: for Transporter Uptake Ratio OAT1: 1 μM PFAS, threshold ≥ 2-fold; for hOAT-mediated uptake (Fig. 3A, OAT1), fold: follow-up test, without probenecid.

The target in series [4] is T1, human OAT3. Description: hOAT3 substrate. Conditions: for hOAT3 uptake ratio, fold higher than mock transfected controls / hOAT3 uptake ratio, % higher than mock transfectants: 1 μM PFAS screen; for Transporter Uptake Ratio OAT3: 1 μM PFAS, threshold ≥ 2-fold; for hOAT3-mediated uptake, fold: follow-up test, without probenecid; for Effect of probenecid cotreatment on hOAT3-mediated uptake: probenecid 1 mM.

Series [5] addresses T3, human OAT4 (Homo sapiens, UniProt Q9NSA0).
T3 sequence (Q9NSA0 1-550): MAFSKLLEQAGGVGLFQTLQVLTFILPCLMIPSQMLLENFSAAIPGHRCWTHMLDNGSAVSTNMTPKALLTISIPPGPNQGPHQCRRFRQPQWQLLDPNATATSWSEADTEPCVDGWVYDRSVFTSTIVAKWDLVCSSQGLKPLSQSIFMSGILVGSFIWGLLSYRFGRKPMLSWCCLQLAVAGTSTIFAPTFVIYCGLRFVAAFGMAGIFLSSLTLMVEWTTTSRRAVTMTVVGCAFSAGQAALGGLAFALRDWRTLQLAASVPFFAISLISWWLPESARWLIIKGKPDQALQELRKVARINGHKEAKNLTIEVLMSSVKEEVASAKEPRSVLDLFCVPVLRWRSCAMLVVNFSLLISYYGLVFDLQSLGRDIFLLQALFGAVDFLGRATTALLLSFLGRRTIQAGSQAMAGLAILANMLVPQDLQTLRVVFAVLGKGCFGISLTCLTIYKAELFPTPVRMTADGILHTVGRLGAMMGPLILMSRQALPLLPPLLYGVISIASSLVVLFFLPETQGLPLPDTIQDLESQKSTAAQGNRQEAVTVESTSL
Description: hOAT4 substrate. Conditions: for hOAT4 uptake ratio, fold / hOAT4 uptake ratio, % above controls: 1 μM PFAS screen; for Transporter Uptake Ratio OAT4: 1 μM PFAS, threshold ≥ 2-fold; for Effect of probenecid co-treatment on hOAT4-mediated uptake: probenecid 1 mM. In kind it is in vitro ADME.

The target in series [6] is T2, human OAT1. Description: OAT1 inhibition assay.
Where [7] appears, read: read-out: IC50 hOAT3 inhibition, probe [3H]-ES 0.1 μM, 30 min pre-incubation.

The structures appear in SMILES notation. Several values for one entry are separate records, joined by “and”; a condition that tells them apart may be missing. Identical values can stand only once. Like-named read-outs stand apart in the source and are kept apart here.

Turning to `O=S(=O)(O)CCC(F)(F)C(F)(F)C(F)(F)C(F)(F)C(F)(F)C(F)(F)F` [6:2FTS, 6:2 fluorotelomer sulfonate], the “Ph 7.4 A-B Papp” value in series [1] turned out to be 0.71 ×10⁻⁶ cm/s. In series [2] (setting [7]), the half-inhibitory concentration (IC50) was found to be 11.3 µM. Also, in series [3], the “Transporter Uptake Ratio OAT1” value is “+ (denoted with a “+” to denote a threshold of ≥ 2-fold has been met and considered a substrate for the transporter)”; the “hOAT-mediated uptake (Fig. 3A, OAT1), fold” value is recorded as ~ 4 fold. In series [4], the “hOAT3 uptake ratio, fold higher than mock transfected controls” value is reported as 2.5–12 fold; the “Transporter Uptake Ratio OAT3” value is “+ (denoted with a “+” to denote a threshold of ≥ 2-fold has been met and considered a substrate for the transporter)”; the “hOAT3-mediated uptake, fold” value is recorded as 2.5–15 fold. Moreover, in series [5], the “hOAT4 uptake ratio, fold” value is on record as “greater than 2 fold”; the “Transporter Uptake Ratio OAT4” value is “+ (denoted with a “+” to denote a threshold of ≥ 2-fold has been met and considered a substrate for the transporter)”.
Consider `O=C(O)C(F)(F)C(F)(F)C(F)(F)F` [PFBA, Perfluorobutanoic acid], for which the “Ph 7.4 A-B Papp” value in series [1] was 0.93 ×10⁻⁶ cm/s. Also, the “Some level of inhibition against hOAT3 mediated transport” value in series [2] is reported as “the only exceptions”. In series [4], the “hOAT3 substrate classification” value is “weak substrate” and the “hOAT3 uptake ratio, % higher than mock transfectants” value is reported as 30–50%. In addition, the hOAT3 uptake ratio in series [4] (statistically significant, below 2-fold cut-off) is reported as 1.5. Besides, the “Some level of inhibition against hOAT1 mediated transport” value in series [6] is “the only exceptions”.
With `O=S(=O)(O)C(F)(F)C(F)(F)C(F)(F)C(F)(F)F` [PFBS, Perfluorobutane sulfonic acid], the “Ph 7.4 A-B Papp” value in series [1] amounted to 1.38 ×10⁻⁶ cm/s. Besides, the “hOAT1 uptake ratio, % higher than controls” value in series [3] (1 μM PFAS screen) is listed as 5–60%. In addition, in series [4], the “hOAT3 uptake ratio, fold higher than mock transfected controls” value is recorded as 2.5–12 fold; the “Transporter Uptake Ratio OAT3” value is “+ (denoted with a “+” to denote a threshold of ≥ 2-fold has been met and considered a substrate for the transporter)”; the “hOAT3-mediated uptake, fold” value is listed as 2.5–15 fold; the “Effect of probenecid cotreatment on hOAT3-mediated uptake” value (“Effect of probenecid cotreatment” below) is “markedly inhibited”. For the same compound, in series [5], the “OAT4 substrate classification” value was “strong substrates”; the “hOAT4 uptake ratio, fold” value is on record as “greater than 2 fold”; the “Transporter Uptake Ratio OAT4” value was “+ (denoted with a “+” to denote a threshold of ≥ 2-fold has been met and considered a substrate for the transporter)”; the “Effect of probenecid co-treatment on hOAT4-mediated uptake” value (from here on “Effect … on hOAT4-mediated uptake”) is listed as “effectively inhibited”.
On to `O=C(O)C(F)(F)C(F)(F)C(F)(F)C(F)(F)C(F)(F)C(F)(F)C(F)(F)C(F)(F)C(F)(F)F` [PFDA, perfluorodecanoic acid], for which the “Ph 7.4 A-B Papp” value in series [1] was 8.44 ×10⁻⁶ cm/s. In addition, in series [4], the “hOAT3 substrate classification” value was “weak substrate” and the “hOAT3 uptake ratio, % higher than mock transfectants” value is reported as 30–50%.
For the compound `O=C(O)C(F)(F)C(F)(F)C(F)(F)C(F)(F)C(F)(F)F` [PFHxA, perfluorohexanoic acid], in series [1], the “Ph 7.4 A-B Papp” value was 1.16 ×10⁻⁶ cm/s. Moreover, the “hOAT1 uptake ratio, fold higher than the control” value in series [3] (1 μM PFAS screen) was ~ 2 fold. Besides, in series [3], the “Transporter Uptake Ratio OAT1” value is “+ (denoted with a “+” to denote a threshold of ≥ 2-fold has been met and considered a substrate for the transporter)”; the “hOAT-mediated uptake (Fig. 3A, OAT1), fold” value is given as ~ 2 fold. Further, the “Effect of probenecid co-treatment on hOAT1-mediated uptake” value in series [3] (probenecid 1 mM) is given as “markedly reduced”. In series [4], the “hOAT3 uptake ratio, fold higher than mock transfected controls” value is recorded as 2.5–12 fold; the “Transporter Uptake Ratio OAT3” value was “+ (denoted with a “+” to denote a threshold of ≥ 2-fold has been met and considered a substrate for the transporter)”; the “hOAT3-mediated uptake, fold” value is on record as 2.5–15 fold; the “Effect of probenecid cotreatment” value is on record as “markedly inhibited”. For the same compound, in series [5], the “OAT4 substrate classification” value is reported as “strong substrates”; the “hOAT4 uptake ratio, % above controls” value is given as ~ 20%; the “Transporter Uptake Ratio OAT4” value is “+ (denoted with a “+” to denote a threshold of ≥ 2-fold has been met and considered a substrate for the transporter)”; the “Effect … on hOAT4-mediated uptake” value is “effectively inhibited”.
Take `O=S(=O)(O)C(F)(F)C(F)(F)C(F)(F)C(F)(F)C(F)(F)C(F)(F)F` [PFHxS, perfluorohexane sulfonic acid]: the concentration for half-maximal inhibition (IC50) in series [2] turned out to be 10.3 µM. Also, in series [4], the “hOAT3 uptake ratio, fold higher than mock transfected controls” value was 2.5–12 fold; the “Transporter Uptake Ratio OAT3” value was “+ (denoted with a “+” to denote a threshold of ≥ 2-fold has been met and considered a substrate for the transporter)”; the “hOAT3-mediated uptake, fold” value is 2.5–15 fold; the “Effect of probenecid cotreatment” value is given as “markedly inhibited”. In series [5], the “OAT4 substrate classification” value is listed as “strong substrates”; the “hOAT4 uptake ratio, fold” value is reported as “greater than 2 fold”; the “Transporter Uptake Ratio OAT4” value was “+ (denoted with a “+” to denote a threshold of ≥ 2-fold has been met and considered a substrate for the transporter)”; the “Effect … on hOAT4-mediated uptake” value was “not inhibited”. For the same compound, the “Fold difference in OAT4 uptake ratio between PFHxS and PFOS” value in series [5] (PFHxS versus PFOS) was ~ 2.5 fold.
As for `O=C(O)C(F)(F)C(F)(F)C(F)(F)C(F)(F)C(F)(F)C(F)(F)C(F)(F)C(F)(F)F` [PFNA, perfluorononanoic acid], the “Ph 7.4 A-B Papp” value in series [1] turned out to be 3.77 ×10⁻⁶ cm/s. Moreover, the IC50 in series [2] (setting [7]) was 9.8 µM. In series [4], the “hOAT3 uptake ratio, fold higher than mock transfected controls” value was 2.5–12 fold; the “Transporter Uptake Ratio OAT3” value was “+ (denoted with a “+” to denote a threshold of ≥ 2-fold has been met and considered a substrate for the transporter)”; the “hOAT3-mediated uptake, fold” value is reported as 2.5–15 fold; the “Effect of probenecid cotreatment” value was “markedly inhibited”. Also, in series [5], the “OAT4 substrate classification” value is “strong substrates”; the “hOAT4 uptake ratio, fold” value is “greater than 2 fold”; the “Transporter Uptake Ratio OAT4” value was “+ (denoted with a “+” to denote a threshold of ≥ 2-fold has been met and considered a substrate for the transporter)”; the “Effect … on hOAT4-mediated uptake” value is recorded as “effectively inhibited”.
As for `O=S(=O)(O)C(F)(F)C(F)(F)C(F)(F)C(F)(F)C(F)(F)C(F)(F)C(F)(F)C(F)(F)F` [PFOS, perfluorooctane sulfonic acid], the “Ph 7.4 A-B Papp” value in series [1] is 14 ×10⁻⁶ cm/s and 14.04 ×10⁻⁶ cm/s. For the same compound, the “hOAT3 uptake ratio, % higher than mock transfectants” value in series [4] is given as 30–50%. In addition, in series [5], the “OAT4 substrate classification” value is “relatively weak substrate” and the “hOAT4 uptake ratio, % above controls” value is reported as ~ 20%.
For `O=C(O)C(F)(F)C(F)(F)C(F)(F)C(F)(F)F` [PFPA, perfluoropentanoic acid], the “Ph 7.4 A-B Papp” value in series [1] amounted to 0.99 ×10⁻⁶ cm/s. Also, in series [4], the “hOAT3 uptake ratio, fold higher than mock transfected controls” value was 2.5–12 fold; the “Transporter Uptake Ratio OAT3” value was “+ (denoted with a “+” to denote a threshold of ≥ 2-fold has been met and considered a substrate for the transporter)”; the “hOAT3-mediated uptake, fold” value is on record as 2.5–15 fold; the “Effect of probenecid cotreatment” value is recorded as “markedly inhibited”. The “Effect … on hOAT4-mediated uptake” value in series [5] is “effectively inhibited”.
With `O=C(O)C(F)(F)C(F)(F)C(F)(F)C(F)(F)C(F)(F)C(F)(F)C(F)(F)C(F)(F)C(F)(F)C(F)(F)F` [PFUDA, perfluoroundecanoic acid], the “Ph 7.4 A-B Papp” value in series [1] came to 11.56 ×10⁻⁶ cm/s.

A word on the IC50: it is the concentration needed to halve the response being measured.

The values are drawn from paper PMC11774580 (Chemosphere, 2024).
